Laboratory results: patent publication US20100173835A1, “Peptides for Treatment of Obesity” (Novo Nordisk A/S, priority 2008, published 2010)
≈ marks a conversion by molar mass, not a printed value. Where two headings read alike, the source gives them in different places. Each block holds one compound with its values, some of them ahead of it. Where a SMILES comes first, the peptide text is derived from it. Bridges are numbered along the chain shown (N, C = ends). [ ]: non-standard residue; d: D form. The star is where a group is joined. Palmitoyl(16-(5-tetrazolyl)) = O=C(CCCCCCCCCCCCCCCc1nnn[nH]1)*; Lys(CH2CO2H)2 = N[C@@H](CCCCN(CC(=O)O)CC(=O)O)C(=O)O; Hyp = O=C(O)[C@@H]1C[C@@H](O)CN1; NTA = O=C(O)CN(CC(=O)O)CC(=O)*; Nle = CCCC[C@H](N)C(=O)O; Orn = NCCC[C@H](N)C(=O)O; Dap = NC[C@H](N)C(=O)O; AEEA = NCCOCCOCC(=O)O

How the values were obtained:
[1] = Solubility data of compounds in water over the pH range; type: physicochemical
human MC4 receptor = target: T1, human MC4 receptor (Homo sapiens, UniProt P32245); assay: Assay (V) Melanocortin Receptor 4 (MC4) binding assay; settings: 125NDP-α-MSH binding, BHK cell membranes
T1 construct: expressed in transfected cells
Method: Assay (V)—Melanocortin Receptor 4 (MC4) Binding Assay
In vitro ^125NDP-α-MSH binding to recombinant BHK cells expressing human MC4 receptor (filtration assay).
The assay is performed in 5 ml minisorb vials (Sarstedt No. 55.526) or in 96-well filterplates (Millipore MADVN 6550), and using BHK cells expressing the human MC4 receptor using BHK cells stably expressing the human MC4 receptor. The membranes were prepared from frozen or fresh cells that were homogenized in 20 mM HEPES pH 7.1, 5 mM MgCl2 and 1 mg/ml bacitracin and centrifuged at 15000 rpm at 4° C., 10 min in a Sorvall RC 5B plus, SS-34 rotor. The supernatant was discarded, and the pellets were re-suspended in buffer, homogenized and centrifuged two more times. The final pellets were resuspended in the buffer mentioned above, and the protein concentration was measured and adjusted with buffer to 14 to 17 mg/ml and the membrane preparation were kept at −80° C. until assay. The assay was run directly on a dilution of this cell membrane suspension, without any further preparation. The BHK cell membranes are kept at −80° C. until assay, and the assay is run directly on a dilution of this cell membrane suspension, without further preparation. The suspension is diluted to give maximally 10% specific binding, i.e. to approx. 50-100 fold dilution. The assay is performed in a total volume of 200 μl: 50 μl of cell suspension, 50 μl of ^125NDP-α-MSH (≈79 pM in final concentration), 50 μl of test compound and 50 μl binding buffer (pH 7) mixed and incubated for 2 h at 25° C. [binding buffer: 25 mM HEPES, pH 7.0, 1 mM CaCl2, 1 mM MgSO4, 1 mM EGTA, 0.02% Bacitracin, 0.005% Tween™ 20 and 0.1% HSA or, alternatively, 0.1% ovalbumin (Sigma; catalogue No. A-5503)]. Test compounds are dissolved in DMSO and diluted in binding buffer. Radiolabelled ligand and membranes are diluted in binding buffer. The incubation is stopped by dilution with 2×100 μl ice-cold 0.9% NaCl. The radioactivity retained on the filters is counted using a Cobra II auto gamma counter.
(§1) The data are analysed by non-linear regression analysis of binding curves, using the Windows™ program GraphPad™ Prism (GraphPad Software, USA).

MC1 receptor = target: T2, MC1 receptor (Homo sapiens, UniProt Q01726); assay: Assay (IV) Melanocortin Receptor 1 (MC1) binding assay
T2 construct: expressed in transfected cells
Method: Assay (IV)—Melanocortin Receptor 1 (MC1) Binding Assay
The MC1 receptor binding assay is performed on BHK cell membranes stably expressing the MC1 receptor. The assay is performed in a total volume of 250 NI: 25 μl of ^125NDP-α-MSH (22 pM in final concentration), 25 μl of test compound/control and 200 μl of cell membrane (25 μg/ml). Test compounds are dissolved in DMSO. Radioactively labeled ligand, membranes and test compounds are diluted in buffer: 25 mM HEPES, pH 7.4, 0.1 mM CaCl2, 1 mM MgSO4, 1 mM EDTA, 0.1% HSA and 0.005% Tween™ 20. Alternatively, HSA may be substituted with ovalbumin. The samples are incubated at 30° C. for 90 min. in Costar round-bottom microtiter plates. Incubation is terminated by filtration on a Packard harvester filtermate. Rapid filtration through Packard Unifilter-96 GF/B filters pre-treated with polyethylenimine (PerkinElmer 6005277). The filters are washed with ice-cold 0.9% NaCl 8-10 times. The plates is air dried at app. 55° C. for 30 min, and 50 μl Microscint 0 (Packard, cat. No. 6013616) is added to each well. The plates are counted in a Topcounter (1 min/well).
as §1

T2 sequence (Q01726 whole entry): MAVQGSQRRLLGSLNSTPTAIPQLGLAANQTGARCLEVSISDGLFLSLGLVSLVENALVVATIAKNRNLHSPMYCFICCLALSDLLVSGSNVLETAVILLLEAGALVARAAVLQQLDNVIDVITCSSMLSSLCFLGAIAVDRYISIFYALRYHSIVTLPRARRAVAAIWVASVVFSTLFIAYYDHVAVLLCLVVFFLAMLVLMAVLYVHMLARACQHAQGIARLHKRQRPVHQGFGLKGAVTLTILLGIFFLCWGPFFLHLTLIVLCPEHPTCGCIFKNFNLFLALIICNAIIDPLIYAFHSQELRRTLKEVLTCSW
T1 sequence (P32245 whole entry): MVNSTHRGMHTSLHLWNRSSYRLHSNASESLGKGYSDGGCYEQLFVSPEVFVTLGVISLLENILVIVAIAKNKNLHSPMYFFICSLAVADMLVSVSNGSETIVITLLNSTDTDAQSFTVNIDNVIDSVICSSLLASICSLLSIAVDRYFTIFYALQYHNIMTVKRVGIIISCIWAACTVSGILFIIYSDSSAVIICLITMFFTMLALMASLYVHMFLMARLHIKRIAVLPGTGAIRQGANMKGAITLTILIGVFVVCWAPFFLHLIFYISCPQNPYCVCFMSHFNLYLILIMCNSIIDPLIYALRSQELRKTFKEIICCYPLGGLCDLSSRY

solubility at 3 days ([1]; pH 3.18): 19 µM (≈ 47.1 µg/mL)
solubility at 3 days ([1]; pH 4.62): 15 µM (≈ 37.2 µg/mL)
solubility at 3 days ([1]; pH 4.66): 23 µM (≈ 57 µg/mL)
solubility at 3 days ([1]; pH 5.07): 18 µM (≈ 44.6 µg/mL)
solubility at 3 days ([1]; pH 5.37): 10 µM (≈ 24.8 µg/mL)
solubility at 3 days ([1]; pH 5.84): 41 µM (≈ 102 µg/mL)
solubility at 3 days ([1]; pH 6.5): 19 µM (≈ 47.1 µg/mL)
solubility at 3 days ([1]; pH 7): 17 µM (≈ 42.1 µg/mL)
solubility at 3 days ([1]; pH 7.29): 20 µM (≈ 49.6 µg/mL)
solubility at 3 days ([1]; pH 7.43): 29 µM (≈ 71.9 µg/mL)
Ki (human MC4 receptor; read-out: Assay (V) MC4 [Ki]): 8.65 nM
Ki (MC1 receptor; 125NDP-α-MSH binding, BHK cell membranes, read-out: Assay (IV) MC1 Ki): > 10000 nM
SMILES: CCCC[C@H](NC(=O)[C@H](CNC(=O)CN(CC(=O)O)CC(=O)O)NC(=O)[C@H](CO)NC(=O)[C@H](CCC(N)=O)NC(=O)[C@H](CO)NC(=O)CNC(=O)COCCOCCNC(=O)COCCOCCNC(=O)COCCOCCNC(=O)COCCOCCNC(=O)CCCCCCCCCCCCCCCc1nnn[nH]1)C(=O)N[C@H]1CCC(=O)NCCCC[C@@H](C(N)=O)NC(=O)[C@H](Cc2c[nH]c3ccccc23)NC(=O)[C@H](CCCNC(=N)N)NC(=O)[C@@H](Cc2ccccc2)NC(=O)[C@@H]2C[C@@H](O)CN2C1=O [Example 14, (2-{2-[2-(2-{2-[2-(2-{2-[2-(2-{2-[16-(Tetrazol-5-yl)hexadecanoylamino]ethoxy}ethoxy)acetylamino]ethoxy}ethoxy)acetylamino]ethoxy}ethoxy)acetylamino]ethoxy}ethoxy)acetyl-Gly-Ser-Gln-Ser-Dap(BCMA)-Nle-c[Glu-Hyp-D-Phe-Arg-Trp-Lys]-NH2] ({Palmitoyl(16-(5-tetrazolyl))-AEEA-AEEA-AEEA-AEEA}-GSQS[Dap](NTA)[Nle]E[Hyp][dF]RWK-NH2; lactam 7-12)

SMILES: CCCC[C@H](NC(=O)[C@H](CCCNC(=O)CN(CC(=O)O)CC(=O)O)NC(=O)[C@H](Cc1c[nH]cn1)NC(=O)[C@H](CCC(N)=O)NC(=O)[C@H](CO)NC(=O)CNC(=O)COCCOCCNC(=O)CCCCCCCCCCCCCCCc1nnn[nH]1)C(=O)N[C@H]1CCC(=O)NCCCC[C@@H](C(N)=O)NC(=O)[C@H](Cc2c[nH]c3ccccc23)NC(=O)[C@H](CCCNC(=N)N)NC(=O)[C@@H](Cc2ccccc2)NC(=O)[C@@H]2C[C@@H](O)CN2C1=O [Example 8, (2-{2-[16-(Tetrazol-5-yl)hexadecanoylamino]ethoxy}ethoxy)acetyl-Gly-Ser-Gln-His-Orn(BCMA)-Nle-c[Glu-Hyp-D-Phe-Arg-Trp-Lys]-NH2] ({Palmitoyl(16-(5-tetrazolyl))-AEEA}-GSQH[Orn](NTA)[Nle]E[Hyp][dF]RWK-NH2; lactam 7-12)
solubility at 3 days ([1]; pH 2.96, pH 2.96, read-out: Conc (solubility in water)): 716 µM (≈ 1520 µg/mL)
solubility at 3 days ([1]; pH 4.1, pH 4.1, read-out: Conc (solubility in water)): 536 µM (≈ 1140 µg/mL)
solubility at 3 days ([1]; pH 4.24, pH 4.24, read-out: Conc (solubility in water)): 389 µM (≈ 825 µg/mL)
solubility at 3 days ([1]; pH 4.87, pH 4.87, read-out: Conc (solubility in water)): 34 µM (≈ 72.1 µg/mL)
solubility at 3 days ([1]; pH 5.9, pH 5.9, read-out: Conc (solubility in water)): 10 µM (≈ 21.2 µg/mL)
solubility at 3 days ([1]; pH 6.7, pH 6.7, read-out: Conc (solubility in water)): 26 µM (≈ 55.1 µg/mL)
solubility at 3 days ([1]; pH 7.45, pH 7.45, read-out: Conc (solubility in water)): 271 µM (≈ 575 µg/mL)
solubility at 3 days ([1]; pH 7.47, pH 7.47, read-out: Conc (solubility in water)): 116 µM (≈ 246 µg/mL)
solubility at 3 days ([1]; pH 7.75, pH 7.75, read-out: Conc (solubility in water)): 280 µM (≈ 594 µg/mL)
solubility at 3 days ([1]; pH 7.95, pH 7.95, read-out: Conc (solubility in water)): 546 µM (≈ 1160 µg/mL)
Ki (human MC4 receptor; Assay (V) MC4 [Ki] (nM)): 0.9 nM
Ki (MC1 receptor): > 10000 nM

SMILES: CCCC[C@H](NC(=O)[C@H](CCCCN(CC(=O)O)CC(=O)O)NC(=O)[C@H](Cc1c[nH]cn1)NC(=O)[C@H](CCC(N)=O)NC(=O)[C@H](CO)NC(=O)CNC(=O)COCCOCCNC(=O)CCCCCCCCCCCCCCCc1nnn[nH]1)C(=O)N[C@H]1CCC(=O)NCCCC[C@@H](C(N)=O)NC(=O)[C@H](Cc2c[nH]c3ccccc23)NC(=O)[C@H](CCCNC(=N)N)NC(=O)[C@@H](Cc2ccccc2)NC(=O)[C@@H]2C[C@@H](O)CN2C1=O [Example 7, (2-{2-[16-(Tetrazol-5-yl)hexadecanoylamino]ethoxy}ethoxy)acetyl-Gly-Ser-Gln-His-Lys(biscarboxymethyl)-Nle-c[Glu-Hyp-D-Phe-Arg-Trp-Lys]-NH2] ({Palmitoyl(16-(5-tetrazolyl))-AEEA}-GSQH[Lys(CH2CO2H)2][Nle]E[Hyp][dF]RWK-NH2; lactam 7-12)
solubility at 3 days ([1]; pH 2.94, pH 2.94, read-out: Conc (solubility in water)): 536 µM (≈ 1110 µg/mL)
solubility at 3 days ([1]; pH 3.28, pH 3.28, read-out: Conc (solubility in water)): 476 µM (≈ 989 µg/mL)
solubility at 3 days ([1]; pH 3.59, pH 3.59, read-out: Conc (solubility in water)): 398 µM (≈ 827 µg/mL)
solubility at 3 days ([1]; pH 3.95, pH 3.95, read-out: Conc (solubility in water)): 276 µM (≈ 573 µg/mL)
solubility at 3 days ([1]; pH 4.75, pH 4.75, read-out: Conc (solubility in water)): 42 µM (≈ 87.3 µg/mL)
solubility at 3 days ([1]; pH 5.64, pH 5.64, read-out: Conc (solubility in water)): 19 µM (≈ 39.5 µg/mL)
solubility at 3 days ([1]; pH 6.48, pH 6.48, read-out: Conc (solubility in water)): 18 µM (≈ 37.4 µg/mL)
solubility at 3 days ([1]; pH 6.98, pH 6.98, read-out: Conc (solubility in water)): 35 µM (≈ 72.7 µg/mL)
solubility at 3 days ([1]; pH 7.48, pH 7.48, read-out: Conc (solubility in water)): 262 µM (≈ 544 µg/mL)
solubility at 3 days ([1]; pH 7.78, pH 7.78, read-out: Conc (solubility in water)): 391 µM (≈ 812 µg/mL)
Ki (human MC4 receptor; Assay (V) MC4 [Ki] (nM)): 1.6 nM
Ki (MC1 receptor): 8710 nM
